Measured values published in US20190054051A1, “DOPA Formulations for Treatments of Parkinson's Disease” (The Board of Trustees of the Leland Stanford Junior …, priority 2017, published 2019).

Assays:
Akt = assay: Western blot of phospho Akt (T308, S473) in striatum; design: species or system mice; details: mouse, in vivo
Experimental: (§1) After behavioral testing, mice again received their assigned injection and then, 45 minutes later, were decapitated under anesthesia. Tissue samples were processed as follows. Briefly, the brain was dissected, rapidly frozen on dry ice, and stored at −80° C. Striatal tissue was collected from 100 μm coronal slices cut at the level of striatum using a cryostat (Leica CM1950, Leica Biosystems Inc, Buffalo Groove, Ill.). Striatal samples from the intact and the lesioned hemisphere were separately collected in 150p1 of lysis solution (Totally RNA, Ambion, Austin, Tex.). Care was taken to make sure that the tissue samples were collected from similar regions in all the brain samples analyzed, since there are differences in the expression of GRKs from rostral to caudal CPu. Protein concentration was estimated using Bradford reagent (Bio-Rad, Hercules, Calif.). 200m protein was precipitated with 100% methanol and centrifuged at 10000 g for 10 mins in a table top centrifuge. The pellet was re-suspended in 90% methanol and centrifuged for an additional 10 mins at 10000 g. The supernatant was discarded and the pellet was air dried and dissolved in 400 μL of β-mercaptoethanol containing 2× Laemmli sample buffer (Biorad, Hercules, Calif.), for a final concentration of 0.5 mg/mL. These samples were stored at −80° C. until use. Samples were electrophoresed through 10% polyacrylamide gels and transferred on to Immobilon-P PVDF membranes (Millipore, Bedford, Mass.) and processed. […] Western blots were quantified using band densitometry in Image J software (NIH version). […] Results are represented as group mean±SEM and analyzed using one-way or repeated-measures ANOVA (RM-ANOVA), with post hoc Bonferroni tests. The mouse cylinder test was analyzed with RM-ANOVA, with group (DOPA and DOPA-ranitidine formulations) as a between-group factor and saline vs. DOPA treatment as a within-group factor. AIMs scores were analyzed using the Kruskal Wallis test for pre-testing (DOPA injected animals) and the Mann-Whitney U test for the post-testing sessions (DOPA vs DOPA-ranitidine formulations). […]

Δ Fos B = assay: Western blot of Δ Fos B accumulation in striatum; design: species or system mice; details: mouse, in vivo
Experimental: as §1, with “CPu.” for “CPu. Protein concentration was estimated using Bradford reagent (Bio-Rad, Hercules, Calif.). 200m protein was precipitated with 100% methanol and centrifuged at 10000 g for 10 mins in a table top centrifuge. The pellet was re-suspended in 90% methanol and centrifuged for an additional 10 mins at 10000 g. The supernatant was discarded and the pellet was air dried and dissolved in 400 μL of β-mercaptoethanol containing 2× Laemmli sample buffer (Biorad, Hercules, Calif.), for a final concentration of 0.5 mg/mL. These samples were stored at −80° C. until use. Samples were electrophoresed through 10% polyacrylamide gels and transferred on to Immobilon-P PVDF membranes (Millipore, Bedford, Mass.) and processed.”

Structure (SMILES) | Akt phosphorylation at Thr308 in the lesioned striatum (Akt) | Δ Fos B accumulation on the lesioned side (Δ Fos B) | Akt phosphorylation at Ser473 (Akt)
CN/C(=C\[N+](=O)[O-])NCCSCc1ccc(CN(C)C)o1 [Ranitidine, N-(2-[(5-[(dimethylamino)methyl]furan-2-yl)methylthio]ethyl)-N′-methyl-2-nitroethene-1,1-diamine] | no effect | no effects | –
N[C@@H](Cc1ccc(O)c(O)c1)C(=O)O [L-DOPA, L-3,4-dihydroxyphenylalanine] | elevated in the lesioned striatum | significantly increased on the lesioned side | not statistically significant
